Experimental data reported in patent US20260242478A1, “ANTIBODIES FOR TARGETING PSMA AND CD28 AND USES THEREOF” (Janux Therapeutics, Inc., priority 2023, published 2026).
Where no end group is shown, it is not given here.

Experiments:
[1] = test system: anti-CD28 scFv (SEQ ID NO: 9); experiment: Kinetic binding of anti-CD28 scFv to peptides, bio-layer interferometry (Octet RED96); conditions: 200 nM peptide loaded
Procedure: (§1) Briefly, streptavidin biosensors were loaded with biotinylated peptides and baselined in buffer. […] After a short association period, sensors were transferred into buffer and the dissociation of bound anti-CD28 scFv was measured. The timing and steps of the experiment are shown in the accompanying table. Association and dissociation signals were recorded in real time and analyzed using a 1:1 binding model within the instrument software. Analysis using a 1:1 binding model enabled the calculation of the on and off rate constants as well as affinity, KD.
as §1, with “KD. FIGS. 70A-70F illustrate kinetic binding of anti-CD28 scFv binding to peptides as measured by Octet. FIGS. 70G-70U illustrate kinetic binding of peptides to the anti-CD28 scFv as measured by Octet.” for “KD.”

[2] = test system: PSMA Fab; experiment: Phage binding ELISA, PSMA Fab, with or without PSMA antigen (peptide-179 and peptide-180 libraries); conditions: peptide-180 library clonal phage; background (no Fab)
Procedure: (§2) Once the phage optimization libraries were completed, phage libraries were bio-panned using PSMA Fab loaded beads. Multiple rounds of panning were performed where bacteriophage was allowed to bind to PSMA Fab loaded beads. washed. eluted, and amplified. After panning, phage infected bacteria were plated out and colonies picked into 96 well blocks. Clonal phage was then amplified and separated from bacterial cells via centrifugation. Phage containing supemnatants were tested in binding ELISAs against PSMA Fab coated plates in the presence or absence of saturating concentrations of PSMA antigen. Phage able to bind PSMA Fab were selected for sequence analysis if the binding signal was reduced in the presence of PSMA.
Clonal phage were harvested as crude supernatants and screened via standard ELISAs. Briefly, biotinylated PSMA Fab was captured on neutravidin coated plates. Prior to the addition of clonal phage. wells were incubated with blocking buffer and PSMA antigen or blocking buffer alone. Without washing or aspirating, clonal phage supernatants were then added to the wells and incubated for a short time. Wells were then washed followed by detection of bound phage using a horse radish conjugated anti-M13 antibody. Clonal phage of interest were then sent for sequence analysis.
as §2, with “beads, washed,” for “beads. washed.”, “supernatants” for “supemnatants”

[3] = Table 34, CD28 scFv titrated 100-12.5 nM
[4] = Table 36, anti-CD28 scFv titrated 100-12.5 nM

anti-CD28 scFv (SEQ ID NO: 9), sequence (as listed by the source): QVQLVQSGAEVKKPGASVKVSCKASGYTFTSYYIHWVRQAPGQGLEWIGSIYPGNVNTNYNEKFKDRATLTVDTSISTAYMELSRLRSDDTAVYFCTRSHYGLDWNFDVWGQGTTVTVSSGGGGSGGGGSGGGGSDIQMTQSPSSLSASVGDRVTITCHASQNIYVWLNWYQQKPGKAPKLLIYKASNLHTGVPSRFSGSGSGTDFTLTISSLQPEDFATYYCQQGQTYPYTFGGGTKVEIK
PSMA Fab, sequence (as listed by the source): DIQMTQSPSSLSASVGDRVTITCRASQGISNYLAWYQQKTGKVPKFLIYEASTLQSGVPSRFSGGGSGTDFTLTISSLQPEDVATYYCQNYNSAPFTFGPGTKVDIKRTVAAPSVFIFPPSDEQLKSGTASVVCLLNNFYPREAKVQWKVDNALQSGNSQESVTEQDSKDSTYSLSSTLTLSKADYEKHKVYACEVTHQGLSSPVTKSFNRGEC
PSMA Fab, sequence (as listed by the source): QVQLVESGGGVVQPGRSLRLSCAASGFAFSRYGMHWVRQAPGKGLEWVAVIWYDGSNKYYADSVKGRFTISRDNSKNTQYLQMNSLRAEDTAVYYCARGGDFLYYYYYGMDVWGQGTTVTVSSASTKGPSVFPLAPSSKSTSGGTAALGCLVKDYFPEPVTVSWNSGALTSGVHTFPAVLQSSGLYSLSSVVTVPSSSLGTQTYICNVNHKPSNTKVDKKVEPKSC

Substance | kdis [1, 3] [s⁻¹] | kon [1, 3] [M⁻¹ s⁻¹] | Kd [1, 4] [µM] | kdis [1, 4] [s⁻¹] | kon [1, 4] [M⁻¹ s⁻¹] | Phage binding ELISA Background signal [2]
MDWCPRERWVDCFF [Peptide-9] | 0.0123 | 32500 | 0.278 | 0.0115 | 41500 | 
MDWCPLHMWHECFS [Peptide-35] |  |  | 0.127 | 0.00497 | 39000 | 
MDWCPIDLWNECFF [Peptide-31] |  |  | 0.0718 | 0.00369 | 51400 | 
MNWCPKDIWYLCFN [Peptide-34] |  |  | 0.0888 | 0.00684 | 77000 | 
MDWCPRHMWNYCFA [Peptide-46] |  |  | 0.0352 | 0.00218 | 61900 | 
MDWCPRFMWDECFN [Peptide-45] |  |  | 0.134 | 0.00364 | 27100 | 
MDWCPRSLWHECFA [Peptide-47] |  |  | 0.0518 | 0.00201 | 38900 | 
MDWCPRDMWSECFA [Peptide-43] |  |  | 0.192 | 0.0032 | 16700 | 
MDWCPRDMWDECFA [Peptide-42] |  |  | 0.152 | 0.00433 | 28400 | 
MDWCPRDLWSECFF [Peptide-40] |  |  | 0.0799 | 0.0031 | 38800 | 
MDWCPIYLWSECFN [Peptide-33] |  |  | 0.0528 | 0.00153 | 29000 | 
MHWCPVDLWYLCYN [Peptide-49] |  |  | 0.0211 | 0.00186 | 88200 | 
MDWCPIHLWHVCFN [Peptide-32] |  |  | 0.0499 | 0.00295 | 59100 | 
MDWCPRYLWHVCFA [Peptide-48] |  |  | 0.0211 | 0.00187 | 88900 | 
GYCHYWGDMVMWCG [Peptide-12] | 0.00167 | 98700 |  |  |  | 
MDWCPRDLWHECFA [Peptide-38] |  |  | 0.0923 | 0.00277 | 30000 | 

Substance | kdis [1, 3] [s⁻¹] | kon [1, 3] [M⁻¹ s⁻¹] | Kd [1, 4] [µM] | kdis [1, 4] [s⁻¹] | kon [1, 4] [M⁻¹ s⁻¹] | Phage binding ELISA Background signal [2]
Phage-2841 (ESIRCTPAWMCVEM; not fully specified; cysteine pairing not given here) |  |  |  |  |  | 0.0625
Phage-2842 (PEVMCRPVWMCLGF; not fully specified; cysteine pairing not given here) |  |  |  |  |  | 0.0609
Phage-2843 (MLPICKPDWMCAGF; not fully specified; cysteine pairing not given here) |  |  |  |  |  | 0.0724
Phage-2816 (GDKWCKPSWMCDFF) |  |  |  |  |  | 0.0602
Phage-2867 (VLPMCSPPWMCIGL) |  |  |  |  |  | 0.0631
Phage-2849 (VFPICKPSWMCVGM; not fully specified; cysteine pairing not given here) |  |  |  |  |  | 0.0918
MDWCPRDLWHLCFS [Peptide-39] |  |  | 0.0519 | 0.00265 | 51100 | 
MDWCPRDMWSVCFS [Peptide-44] |  |  | 0.374 | 0.00812 | 21700 | 
Phage-2863 (FNVMCRPAWMCDFL; not fully specified; cysteine pairing not given here) |  |  |  |  |  | 0.1545
Phage-2864 (IETWCVPRWMCEGF) |  |  |  |  |  | 0.0693
Phage-2861 (WDRLCIPAWMCSGF; not fully specified; cysteine pairing not given here) |  |  |  |  |  | 0.0903
Phage-2802 (TPKWCTPAWMCVVS) |  |  |  |  |  | 0.0829
Phage-2818 (SVHMCKPPWMCQSM) |  |  |  |  |  | 0.0587
Phage-2815 (IDKWCVPAWMCSPA) |  |  |  |  |  | 0.0608
Phage-2848 (VMTVCKPAWMCTGF; not fully specified; cysteine pairing not given here) |  |  |  |  |  | 0.1338
